Reference: patent publication US12540131B2 (Merck Sharp & Dohme LLC, priority 2019, dated 2026)

These compounds were tested against GST tagged truncated human mutant G2019S LRRK2 (Homo sapiens (Human), UniProt Q5S007, G2019S) (assay: LRRK2 Km ATP LanthaScreen Assay). Settings: G2019S LRRK2, 134 μM ATP (Km ATP), mean values.
Format: biochemical
Procedure, shortened: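 Enzyme (GST-tagged, truncated) was preincubated with compound for 15 min at RT in 50 mM Tris pH 8.5, 10 mM MgCl2, 0.01% Brij-35, 1 mM EGTA, 2 mM DTT and 0.05 mM orthovanadate. Fluorescein-LRRKtide and 134 μM ATP (Km) were then added for 90 min. EDTA and Tb-anti-pERM antibody stopped the reaction; the TR-FRET 520/495 ratio gave 4-parameter IC50s, reported as mean pIC50.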

Sequence of GST tagged truncated human mutant G2019S LRRK2 (Q5S007 970-2527 G2019S): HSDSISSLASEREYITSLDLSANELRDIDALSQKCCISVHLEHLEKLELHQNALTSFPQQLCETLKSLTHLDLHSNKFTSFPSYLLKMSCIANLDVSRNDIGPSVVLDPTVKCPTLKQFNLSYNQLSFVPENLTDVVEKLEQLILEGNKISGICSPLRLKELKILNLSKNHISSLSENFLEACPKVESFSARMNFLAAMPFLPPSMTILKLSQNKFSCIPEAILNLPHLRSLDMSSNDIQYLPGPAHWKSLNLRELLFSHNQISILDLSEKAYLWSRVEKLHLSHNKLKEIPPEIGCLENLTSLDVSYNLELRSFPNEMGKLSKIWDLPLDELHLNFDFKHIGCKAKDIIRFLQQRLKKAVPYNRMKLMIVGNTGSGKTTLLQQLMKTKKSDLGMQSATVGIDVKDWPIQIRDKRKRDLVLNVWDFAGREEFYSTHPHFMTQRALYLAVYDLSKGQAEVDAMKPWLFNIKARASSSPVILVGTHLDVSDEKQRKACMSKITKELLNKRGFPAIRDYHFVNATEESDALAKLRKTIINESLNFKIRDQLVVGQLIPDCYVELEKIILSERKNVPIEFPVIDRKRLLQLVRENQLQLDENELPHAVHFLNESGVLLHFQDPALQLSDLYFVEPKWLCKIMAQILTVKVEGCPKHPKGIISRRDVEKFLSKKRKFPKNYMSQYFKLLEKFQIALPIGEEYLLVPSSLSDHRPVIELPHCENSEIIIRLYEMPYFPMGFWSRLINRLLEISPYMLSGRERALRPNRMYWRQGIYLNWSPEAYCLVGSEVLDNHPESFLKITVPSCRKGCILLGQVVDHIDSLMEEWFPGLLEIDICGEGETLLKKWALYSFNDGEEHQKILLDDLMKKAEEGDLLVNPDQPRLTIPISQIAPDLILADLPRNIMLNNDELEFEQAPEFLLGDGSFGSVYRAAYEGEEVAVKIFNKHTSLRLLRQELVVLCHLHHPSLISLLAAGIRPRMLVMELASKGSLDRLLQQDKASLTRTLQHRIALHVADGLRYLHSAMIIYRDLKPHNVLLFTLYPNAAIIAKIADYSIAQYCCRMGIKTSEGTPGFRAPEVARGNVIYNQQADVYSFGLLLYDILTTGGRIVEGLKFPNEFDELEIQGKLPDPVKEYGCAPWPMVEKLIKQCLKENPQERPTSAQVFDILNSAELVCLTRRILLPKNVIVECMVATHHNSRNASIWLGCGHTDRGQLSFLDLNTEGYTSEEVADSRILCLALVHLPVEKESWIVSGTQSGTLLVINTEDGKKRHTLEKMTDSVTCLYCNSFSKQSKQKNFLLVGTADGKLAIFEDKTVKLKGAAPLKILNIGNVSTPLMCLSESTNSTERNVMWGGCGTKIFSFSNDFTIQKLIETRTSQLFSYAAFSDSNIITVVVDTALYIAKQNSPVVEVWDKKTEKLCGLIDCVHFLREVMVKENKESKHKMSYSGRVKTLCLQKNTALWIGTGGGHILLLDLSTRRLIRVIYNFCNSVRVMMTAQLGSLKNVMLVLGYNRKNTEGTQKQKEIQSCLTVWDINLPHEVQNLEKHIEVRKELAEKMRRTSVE

Row | SMILES | LRRK2 pIC50
1 | O=S1(=O)CC(N2CCC(c3cc4nc(Nc5cnn(CC(F)F)c5Cl)ncc4cc3Cl)CC2)C1 [Ex-4.14, 3-(4-(6-chloro-2-((5-chloro-1-(2,2-difluoroethyl)-1H-pyrazol-4-yl)amino)quinazolin-7-yl)piperidin-1-yl)thietane 1,1-dioxide] | >9.20
2 | CN1CC[C@H](c2cc3nc(Nc4cnn(CC(C)(C)O)c4Cl)ncc3cc2Cl)[C@@H](F)C1 (single isomer, unassigned) [Ex-4.23, (3S,4S) or (3R,4R) 1-(5-chloro-4-{[6-chloro-7-(3-fluoro-1-methylpiperidin-4-yl)quinazolin-2-yl]amino}-1H-pyrazol-1-yl)-2-methylpropan-2-ol] | 9.08
3 | Cc1c(Nc2ncc3cc(Cl)c(C4CCN(C5(C)COC5)CC4)cc3n2)cnn1C(C)(C)C#N [Ex-2.20, 2-[4-({6-chloro-7-[1-(3-methyloxetan-3-yl)piperidin-4-yl]quinazolin-2-yl}amino)-5-methyl-1H-pyrazol-1-yl]-2-methylpropanenitrile] | >9.20
4 | Cc1nsc(Nc2ncc3cc(Cl)c([C@H]4CCN(C5CCOC5)C[C@@H]4F)cc3n2)c1Cl (single isomer, unassigned) [Ex-8.22, (3S,4S)(S) or (3S,4S)(R) or (3R,4R)(S) or (3R,4R)(R) 6-chloro-N-(4-chloro-3-methyl-1,2-thiazol-5-yl)-7-[3-fluoro-1-(oxolan-3-yl)piperidin-4-yl]quinazolin-2-amine] | 8.68
5 | Cc1nsc(Nc2ncc3cc(Cl)c([C@@H]4CCN(C5COC[C@@H]5O)C[C@H]4F)cc3n2)c1Cl (single isomer, unassigned) [Ex-4.120, (3S,4S)(3S,4S) or (3S,4S)(3R,4R) or (3R,4R)(3S,4S) or (3R,4R)(3R,4R) 4-{6-chloro-2-[(4-chloro-3-methyl-1,2-thiazol-5-yl)amino]quinazolin-7-yl}-3-fluoropiperidin-1-yl]oxolan-3-ol] | 7.65
6 | N#Cc1cc2cnc(Nc3cnn(C4CC4(F)F)c3Cl)nc2cc1[C@H]1CCN(C2COC2)C[C@@H]1F (single isomer, unassigned) [Ex-6.7, (R)(3S,4S) or (S)(3S,4S) or (R)(3R,4R) or (S)(3R,4R) 2-((5-chloro-1-(2,2-difluorocyclopropyl)-1H-pyrazol-4-yl)amino)-7-(3-fluoro-1-(oxetan-3-yl)piperidin-4-yl)quinazoline-6-carbonitrile] | 9.01
7 | CN1CCC(c2cc3nc(Nc4cnn(C(C)(C)CO)c4Cl)ncc3cc2Cl)CC1 [Ex-8.11, 2-(5-chloro-4-{[6-chloro-7-(1-methylpiperidin-4-yl)quinazolin-2-yl]amino}-1H-pyrazol-1-yl)-2-methylpropan-1-ol] | 8.91
8 | O[C@@H]1COC[C@@H]1N1CC[C@@H](c2cc3nc(Nc4cnn(C56CC(C5)C6)c4)ncc3cc2Cl)[C@H](F)C1 (single isomer, unassigned) [Ex-4.153, (3S,4S)(3S,4S) or (3S,4S)(3R,4R) or (3R,4R)(3S,4S) or (3R,4R)(3R,4R) 4-[4-(2-{[1-(bicyclo[1.1.1]pentan-1-yl)-1H-pyrazol-4-yl]amino}-6-chloroquinazolin-7-yl)-3-fluoropiperidin-1-yl]oxolan-3-ol] | >9.20
9 | Cc1c(Nc2ncc3cc(Cl)c(C4CCN(C5(C)CCCC5O)CC4)cc3n2)cnn1C1CC1 (single isomer, unassigned) [Ex-1.19, (1R,2S) or (1S,2R) or (1S,2S) or (1R,2R) 2-(4-(6-chloro-2-((1-cyclopropyl-5-methyl-1H-pyrazol-4-yl)amino)quinazolin-7-yl)piperidin-1-yl)-2-methylcyclopentan-1-ol] | 7.59
10 | C[C@@]1(N2CCC(c3cc4nc(Nc5ccnn5C5CC5)ncc4cc3Cl)CC2)COC[C@@H]1O (single isomer, unassigned) [Ex-2.85, (3S,4S) or (3R,4R) 4-(4-{6-chloro-2-[(1-cyclopropyl-1H-pyrazol-5-yl)amino]quinazolin-7-yl}piperidin-1-yl)-4-methyloxolan-3-ol] | 9.03
11 | Cc1cc2cnc(Nc3cnn(C4CC4)c3C)nc2cc1C1CCN([C@@H]2COC[C@@H]2O)CC1 (single isomer, unassigned) [Ex-5.7, (3S,4S) or (3R,4R) 4-(4-{2-[(1-cyclopropyl-5-methyl-1H-pyrazol-4-yl)amino]-6-methylquinazolin-7-yl}piperidin-1-yl)oxolan-3-ol] | >9.20
12 | F[C@H]1CN(C2COC2)CC[C@@H]1c1cc2nc(Nc3cnn(C4CC4(F)F)c3Cl)ncc2cc1Cl (single isomer, unassigned) [Ex-8.30, (R)(3S,4S) or (S)(3S,4S) or (R)(3R,4R) or (S)(3R,4R) 6-chloro-N-[5-chloro-1-(2,2-difluorocyclopropyl)-1H-pyrazol-4-yl]-7-[3-fluoro-1-(oxetan-3-yl)piperidin-4-yl]quinazolin-2-amine] | 8.96
13 | Cc1c(Nc2ncc3cc(Cl)c(C4CCN(C[C@@H](O)c5ccc(F)c(F)c5)CC4)cc3n2)cnn1C1CC1 [Ex-4.200, (1S)-2-(4-{6-chloro-2-[(1-cyclopropyl-5-methyl-1H-pyrazol-4-yl)amino]quinazolin-7-yl}piperidin-1-yl)-1-(3,4-difluorophenyl)ethan-1-ol] | 8.76
14 | Cc1cc(Nc2ncc3cc(Cl)c(C4CCN([C@@H]5COC[C@@H]5O)CC4)cc3n2)n(C2CC2)n1 (single isomer, unassigned) [Ex-2.75, (3S,4S) or (3R,4R)4-(4-{6-chloro-2-[(1-cyclopropyl-3-methyl-1H-pyrazol-5-yl)amino]quinazolin-7-yl}piperidin-1-yl)oxolan-3-ol] | 8.63
15 | CC1(N2CCC(c3cc4nc(Nc5cnn(CC(F)F)c5Cl)ncc4cc3Cl)CC2)COC1 [Ex-4.98, 6-chloro-N-[5-chloro-1-(2,2-difluoroethyl)-1H-pyrazol-4-yl]-7-[1-(3-methyloxetan-3-yl)piperidin-4-yl]quinazolin-2-amine] | >9.20
16 | Cc1cc2cnc(Nc3cnn(C4CC4(F)F)c3C)nc2cc1C1CCN([C@H]2COC[C@H]2O)CC1 (single isomer, unassigned) [Ex-4.141, (R)(3S,4S) or (S)(3S,4S) or (R)(3R,4R) or (S)(3R,4R) 4-[4-(2-{[1-(2,2-difluorocyclopropyl)-5-methyl-1H-pyrazol-4-yl]amino}-6-methylquinazolin-7-yl)piperidin-1-yl]oxolan-3-ol] | >9.20
17 | Cc1cc(Nc2ncc3cc(Cl)c(C4CCN(C5CS(=O)(=O)C5)CC4)cc3n2)sn1 [Ex-4.96, 3-(4-(6-chloro-2-((3-methylisothiazol-5-yl)amino)quinazolin-7-yl)piperidin-1-yl)thietane 1,1-dioxide] | 9.09
18 | CC1OCC1N1CC[C@H](c2cc3nc(Nc4cnn(CC(C)(C)O)c4Cl)ncc3cc2Cl)[C@@H](F)C1 (single isomer, unassigned) [Ex-4.74, (3S,4S)(2R,3R) or (3S,4S)(2S,3S) or (3R,4R)(2R,3R) or (3R,4R)(2S,3S) or (3R,4R)(2S,3R) or (3R,4R)(2R,3S) or (3S,4S)(2S,3R) or (3S,4S)(2R,3S) 1-[5-chloro-4-({6-chloro-7-[3-fluoro-1-(2-methyloxetan-3-yl)piperidin-4-yl]quinazolin-2-yl}amino)-1H-pyrazol-1-yl]-2-methylpropan-2-ol] | 9.19
19 | Cc1c(Nc2ncc3cc(Cl)c(C4CCN([C@H]5COC[C@H]5O)CC4)cc3n2)cnn1C1CC1 (single isomer, unassigned) [Ex-4.132, (3S,4S) or (3R,4R) 4-(4-{6-chloro-2-[(1-cyclopropyl-5-methyl-1H-pyrazol-4-yl)amino]quinazolin-7-yl}piperidin-1-yl)oxolan-3-ol] | >9.20

Same assay, conditions: G2019S LRRK2, 134 μM ATP (Km ATP), mean values; read-out: LRRK2 pIC50 (converted)

Row | SMILES | IC50 [nM]
20 | Cc1c(Nc2ncc3cc(Cl)c(C4CCN(C5COC5)[C@@H](C)C4)cc3n2)cnn1C1CC1 (single isomer, unassigned) [Ex-1.14, (S) or (R) 6-chloro-N-(1-cyclopropyl-5-methyl-1H-pyrazol-4-yl)-7-(2-methyl-1-(oxetan-3-yl)piperidin-4-yl)quinazolin-2-amine] | < 0.631
21 | Cc1c(Nc2ncc3cc(Cl)c(C4CCN(C5COC5)CC4)cc3n2)cnn1C12CC(C1)C2 [Ex-2.21, N-[1-(bicyclo[1.1.1]pentan-1-yl)-5-methyl-1H-pyrazol-4-yl]-6-chloro-7-[1-(oxetan-3-yl)piperidin-4-yl]quinazolin-2-amine] | 0.676
22 | CC(O)(Cn1ncc(Nc2ncc3cc(Cl)c(C4CCN(C5COC5)CC4)cc3n2)c1Cl)C(F)(F)F (single isomer, unassigned) [Ex-8.25, (S) or (R) 3-[5-chloro-4-({6-chloro-7-[1-(oxetan-3-yl)piperidin-4-yl]quinazolin-2-yl}amino)-1H-pyrazol-1-yl]-1,1,1-trifluoro-2-methylpropan-2-ol] | < 0.631
23 | Cc1c(Nc2ncc3cc(Cl)c(C4CCN(CC(C)(O)c5ccccc5)CC4)cc3n2)cnn1C1CC1 (single isomer, unassigned) [Ex-4.223, (S) or (R) 1-(4-{6-chloro-2-[(1-cyclopropyl-5-methyl-1H-pyrazol-4-yl)amino]quinazolin-7-yl}piperidin-1-yl)-2-phenylpropan-2-ol] | 2.45
24 | Cc1c(Nc2ncc3cc(Cl)c(C4CCN(CC(O)Cc5ccccc5)CC4)cc3n2)cnn1C1CC1 (single isomer, unassigned) [Ex-4.218, (S) or (R) 1-(4-{6-chloro-2-[(1-cyclopropyl-5-methyl-1H-pyrazol-4-yl)amino]quinazolin-7-yl}piperidin-1-yl)-3-phenylpropan-2-ol] | 13.8
